Assay [1] concerns RB-p65 interaction. As to the kind of experiment: Co-immunoprecipitation of RB and p65 in PC-3 cells. The class given is cell-based, human. The settings on record: TNFα 20 ng/mL, 24 hours. From the text:
FIGS. 2A-H. RB phosphorylation by CDK4 enhances RB interaction with NFκB protein p65. (A) Western blot analysis of reciprocal co-immunoprecipitation of endogenous RB1 and p65 proteins in PC-3 cells. (B) Schematic diagram depicting a set of p65 recombinant protein constructs. Western blot analysis of RB proteins in PC-3 cells whole cell lysate pulled down by GST or GST-p65 recombinant proteins. Stars indicated expected molecular weight. (C) Western blot analysis of RB proteins in PC-3 whole cell lysate pulled down by GST or GST-p65 recombinant proteins. Cell lysates were treated with or without λ, phosphatase before GST-pull down. (D) Western blot analysis of PC-3 whole cell lysates (WCL) and co-IP samples. Cell lysates were treated with or without λ, phosphatase before IP. (E) Western blot analysis of WCL and co-IP samples in DU145 cells 24 hours after transfected with indicated plasmids. (F) Western blot analysis of WCL and co-IP samples in PC-3 cells. Cells were treated with or without palbociclib (5 μM) for 24 hours before IP. […] Western blot bands of co-IPed RB protein were quantified by ImageJ software and normalized to the quantified value of IP-ed RB in cells without TNFα treatment. […] Western blot bands of p65 protein were quantified by ImageJ software and normalized to the quantified value of p65 protein in cell lysate without immuno-depletion (preimmune sample). […]

The subject of assay [2] is NF-κB site of the PD-L1 promoter. As to the kind of experiment: EMSA with biotin-labeled PD-L1-prom oligonucleotide and PC-3 nuclear extracts. The class given is cell-based, human. The settings on record: PC-3 nuclear extract. From the text:
FIGS. 11A-H. (A) Heatmap showing differentially expressed genes (FDR<0.01) between palbociclib treatment versus DMSO and knockdown RB1 versus control. Gene expression values (FPKM) were Z-score normalized. FPKM, Fragments Per Kilobase of transcript per Million mapped reads. (B) UCSC Genome Browser screenshots of meta-analysis of published RB ChIP high throughput sequencing (ChIP-seq) data showing RB binding to CD274 (PD-L1) gene locus in K562 cells. PD-L1-prom oligonucleotide DNA containing NF-κB binding sequence was shown in the RB binding peak in the PD-L1 gene, the corresponding mutant PD-L1-prom oligonucleotide DNA was shown below. FIG. 11B discloses SEQ ID NOS 279-280, respectively, in order of appearance. (C) ChIP-qPCR analysis of RB binds at the PD-L1 promotor in PC-3 cells. All data were shown as mean values±SD (n=3). *** P<0.001. (D) ChIP-reChIP analysis examining the co-localization of p65 and RB in the PD-L1 promoters. All data were shown as mean values±SD (n=3). ** P<0.01. […]
FIGS. 21A-N. Effect of RB depletion, cell cycle, and RB-N S249/T252 phospho-mimicking peptide on PD-L1 expression in cell lines of various cancer types. […] 48 hours after infection, PD-L1 expression was determined by western blotting (A), RT-qPCR (B), and FACS (C). […] (D) Pd-l1 protein and mRNA levels were determined by western blotting in primary SKO and DKO mouse prostate tumor cell lines. […]
Background: In EMSA bound probe runs differently from free probe, usually more slowly.

In assay [3] the test system is p65-IκBα interaction. As to the kind of experiment: Co-immunoprecipitation of p65 and IκBα in PC-3 cells. It counts as cell-based, human. The settings on record: TNFα 20 ng/mL, 24 hours.
Assay [4] deals with MAP3K7- and CHD1-KD PC-3 cells. Put plainly: MTS viability / IC50 analysis in MAP3K7- and CHD1-KD PC-3 cells. It counts as cell-based, human. The settings on record: MTS assay, log 2(IC50ratio). As for the experimental part: FIGS. 14A-G. RB functions as a negative regulator of NFκB signaling. (A) PC-3 infected with lentivirus for indicated shRNAs were treated with different chemicals and cells viability was measured by MTS assay. Heat map showing the normalized IC50 ratio (log 2(IC50ratio)). (B-D) PC-3 cells infected with lentivirus expressing indicated shRNAs were harvested for western blots (B), FACS (C), and RT-qPCR (D). All data were shown as mean values±SD (n=3). ns, not significant, * P<0.05, ** P<0.01, *** P<0.001. (E, F) PC-3 cells infected with indicated lentivirus were injected s.c. into NSG mice, and tumors were harvested and photographed at day 21 (E). Data in (F) were shown as means±SD (n=5). ns, not significant, * P<0.05. (G) A model depicting RB functions as a negative regulator of NFκB (p65/p50), providing an explanation of the finding that depletion of RB offsets the death of PTEN-null cells induced by either MAP3K7 or CHD1 deletion.
MAP3K7 or CHD1 was knocked down (KD) in PTEN-null PC-3 cells followed by treatment with an array of small molecule inhibitors for a number of cancer relevant pathways.
(Formazan colour is commonly taken as a measure of viable cells.)

Assay [5] has as its target T1, p65 NFκB protein (human, UniProt Q04206 1-551).
T1 construct: which one stood in the assay is told under assay; also called endogenous p65; in vitro transcribed and translated p65 (pCMV4 p65)
As to the kind of experiment: GST pull down from PC-3 whole cell lysate, western blot. On the procedure:
(§1) Cells were lysed with IP buffer (50 mM Tris-HCl, pH 7.4, 150 mM NaCl, 1% Triton X-100, 1% sodium deoxycholate, and 1% protease inhibitor cocktails) on ice for more than 30 minutes. GST fusion proteins were immobilized on glutathione-Sepharose beads (GE Healthcare Lifesciences). After washing with lysis buffer, the beads were incubated with cell lysates overnight at 4° C. overnight. The beads were then washed six times with binding buffer and re-suspended in sample buffer. The bound proteins were subjected to western blotting analysis.
On the technique in general: A western blot detects proteins with antibodies after separation by electrophoresis.

In assay [6] the target is T1, p65 NFκB protein. As to the kind of experiment: GST pull down from PC-3 whole cell lysate, western blot (FIG. 2H). On the procedure:
as §1

“Also recorded” adds a separate entry of the source.

T1 sequence (Q04206 whole entry): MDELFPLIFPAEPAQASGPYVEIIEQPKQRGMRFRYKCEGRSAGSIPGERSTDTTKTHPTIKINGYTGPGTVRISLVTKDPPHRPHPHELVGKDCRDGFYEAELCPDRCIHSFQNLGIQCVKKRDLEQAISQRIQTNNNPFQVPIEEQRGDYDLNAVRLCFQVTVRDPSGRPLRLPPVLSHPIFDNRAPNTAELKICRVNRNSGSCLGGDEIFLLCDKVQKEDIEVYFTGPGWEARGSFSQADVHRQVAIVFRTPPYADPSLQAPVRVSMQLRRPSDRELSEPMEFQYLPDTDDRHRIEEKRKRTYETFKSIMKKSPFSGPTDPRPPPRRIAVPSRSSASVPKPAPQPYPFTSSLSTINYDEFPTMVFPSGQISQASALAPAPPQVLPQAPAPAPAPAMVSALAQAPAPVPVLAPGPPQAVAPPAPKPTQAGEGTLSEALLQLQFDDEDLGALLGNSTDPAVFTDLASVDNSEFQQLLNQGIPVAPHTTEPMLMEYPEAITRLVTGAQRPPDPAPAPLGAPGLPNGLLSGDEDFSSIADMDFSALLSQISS

Turning to TNFα, the “p65-RB interaction in the nucleus” value in assay [1] is recorded as “increased”. Besides, the “DNA-protein complex (DPC) level at PD-L1-Prom probe” value in assay [2] was “largely enhanced; also recorded: further enhanced”. In addition, in assay [3], the p65-IκBα interaction result is on record as “decreased”.

In the case of `Cc1ccc(NCCCc2ccccc2)c(N)c1` [JSH-23], the “viability of MAP3K7- and CHD1-KD PC-3 cells (normalized IC50 ratio)” value in assay [4] is on record as “further increased viability loss”.

B1: GST-RB-M (other, human, UniProt P06400 380-792, looked up)
chain: NTIQQLMMILNSASDQPSENLISYFNNCTVNPKESILKRVKDIGYIFKEKFAKAVGQGCVEIGSQRYKLGVRLYYRVMESMLKSEEERLSIQNFSKLLNDNIFHMSLLACALEVVMATYSRSTSQNLDSGTDLSFPWILNVLNLKAFDFYKVIESFIKAEGNLTREMIKHLERCEHRIMESLAWLSDSPLFDLIKQSKDREGPTDHLESACPLNLPLQNNHTAADMYLSPVRSPKKKGSTTRVNSTANAETQATSAFQTQKPLKSTSLSLFYKKVYRLAYLRLNTLCERLLSEHPELEHIIWTLFQHTLQNEYELMRDRHLDQIMMCSMYGICKVKNIDLKFKIIVTAYKDLPHAVQETFKRVLIKEEEYDSIIVFYNSVFMQRLKTNILQYASTRPPTLSPIPHIPRSPYKF
notes: domain: RB-M; not shown: glutathione S-transferase (GST) tag of the fusion
B1: in assay [5], the binding result was “no binding”.

B2: GST-RB-C (other, human, UniProt P06400 793-928, looked up)
chain: PSSPLRIPGGNIYISPLKSPYKISEGLPTPTKMTPRSRILVSIGESFGTSEKFQKINQMVCNSDRVLKRSAEGSNPPKPLKKLRFDIEGSDEADGSKHLPGESKFQQKLAEMTSTRTRMQKQKMNDSMDTSNKEEK
notes: domain: RB-C; not shown: glutathione S-transferase (GST) tag of the fusion
In the case of B2, the binding result in assay [6] is reported as “no binding”.

Source of the values: patent publication US20210401931A1, “METHODS AND MATERIALS FOR TREATING CANCER” (Mayo Foundation for Medical Education and Research, priority 2018, published 2021).
